≈ marks a conversion by molar mass, not a printed value. Calls of active or inactive are those of the source. The calls are words filed in the database; no cut-off is given here.
Legend:
Plasmodium falciparum = test: Antimalarial activity as Plasmodium falciparum DNA by PicoGreen microfluorimetry; assay type: functional, organism-based
[1] = system: Mycobacterium tuberculosis; test: Antitubercular activity against Mycobacterium tuberculosis H37Rv at 6.25 ug/ml; assay type: functional, organism-based
[2] = system: M-phase inducer phosphatase (Cdc25); test: Inhibition of Cdc25
NCI-H460 = test: Cytotoxicity against human NCI-H460 cells at 100 uM; assay type: functional, cell-based
[3] = biological target: Cyclin-dependent kinase 1/cyclin B1 (Homo sapiens) (UniProt P06493+P14635); test: Inhibition of Cdc2/cyclin B; assay type: protein-complex assay
MCF = test: Cytotoxicity against human MCF cells at 100 uM; assay type: functional, cell-based
SF-268 = test: Cytotoxicity against human SF268 cells at 100 uM; assay type: functional, cell-based

Sequence of Cyclin-dependent kinase 1/cyclin B1 (Homo sapiens) (P06493 whole entry, looked up): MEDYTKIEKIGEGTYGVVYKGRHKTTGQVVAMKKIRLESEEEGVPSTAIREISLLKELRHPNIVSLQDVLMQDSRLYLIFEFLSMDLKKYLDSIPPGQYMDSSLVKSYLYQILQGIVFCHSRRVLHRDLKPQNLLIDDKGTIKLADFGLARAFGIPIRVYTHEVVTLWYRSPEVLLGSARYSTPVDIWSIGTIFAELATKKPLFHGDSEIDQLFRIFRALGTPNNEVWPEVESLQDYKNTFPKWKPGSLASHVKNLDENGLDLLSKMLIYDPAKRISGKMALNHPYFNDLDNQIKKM
Sequence of Cyclin-dependent kinase 1/cyclin B1 (Homo sapiens) (P14635 whole entry, looked up): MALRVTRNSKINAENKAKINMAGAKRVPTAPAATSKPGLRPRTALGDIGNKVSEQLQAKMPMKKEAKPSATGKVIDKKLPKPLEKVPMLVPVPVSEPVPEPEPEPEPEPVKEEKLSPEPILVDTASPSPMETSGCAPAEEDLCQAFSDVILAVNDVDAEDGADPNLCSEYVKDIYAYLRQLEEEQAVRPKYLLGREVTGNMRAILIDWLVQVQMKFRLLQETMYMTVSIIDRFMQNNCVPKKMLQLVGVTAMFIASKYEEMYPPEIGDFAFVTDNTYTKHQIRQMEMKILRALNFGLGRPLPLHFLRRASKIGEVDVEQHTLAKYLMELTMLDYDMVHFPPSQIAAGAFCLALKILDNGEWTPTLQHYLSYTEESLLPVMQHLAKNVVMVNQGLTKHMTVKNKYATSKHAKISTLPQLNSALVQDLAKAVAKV

How did the IC50 (Plasmodium falciparum) turn out when `CCCC(=O)O[C@]1(C)CCC2[C@@H]3C4OC(C[C@@](C)(O)[C@H](O)CC[C@]4(C)OC(=O)[C@@H]2C)[C@@H]31` (some centres not stated) [BRIARELLIN O] was run?
The IC50 was 24 µg/mL (≈ 54.7 µM).

How did the IC50 (Plasmodium falciparum) turn out when `CC(=O)O[C@@]1(C)CC[C@@H](C(C)C)[C@@H]2C3OC(C[C@@]4(C)CCC[C@]3(C)O4)[C@@H]21` [POLYANTHELLIN A] was run?
Its IC50 is 16 µg/mL (≈ 43.9 µM).

What about the Activity [1] of the same compound?
Its Activity is “inactive”.

With `CC(C)[C@@H]1CC[C@](C)(O)[C@H]2C3C[C@@]4(C)CCC[C@](C)(O4)C(O3)[C@@H]12` as the compound, how does the IC50 (Plasmodium falciparum) read?
Its IC50 is 16 µg/mL (≈ 49.6 µM).

With `CC(=O)O[C@]1(C)CCC2[C@@H]3C4OC(C/C(C)=C\CC[C@]4(C)OC(=O)[C@@H]2C)[C@@H]31` (some centres not stated) [BRIARELLIN J] as the compound, how does the IC50 (Plasmodium falciparum) read?
Its IC50 is > 50 µg/mL.

How did the IC50 (Plasmodium falciparum) turn out when `C=C1CC2OC3[C@H]4C(CC[C@@](C)(OC(=O)CCC)[C@@H]24)[C@@H](C)C(=O)O[C@@]3(C)CC[C@H]1O` (some centres not stated) [BRIARELLIN D] was run?
The IC50 was 13 µg/mL (≈ 30.9 µM).

What about the Activity [2] of the same compound?
Its Activity is “inactive”.

What about the Activity [1] of the same compound?
The Activity was “inactive”.

What about the Activity (NCI-H460) of the same compound?
Its Activity is “inactive”.

What about the Activity [3] of the same compound?
Its Activity is “inactive”.

What about the Activity (MCF) of the same compound?
Its Activity is “inactive”.

And the Activity (SF-268)?
The Activity was “inactive”.

With `C=C1CC2OC3[C@H]4C(CC[C@@](C)(OC(=O)CCC)[C@@H]24)[C@@H](C)C(=O)O[C@@]3(C)CC[C@H]1OO` (some centres not stated) [BRIARELLIN D HYDROPEROXIDE] as the compound, how does the IC50 (Plasmodium falciparum) read?
Its IC50 is 9 µg/mL (≈ 20.6 µM).

Which results are given for `CO[C@@H]1CC[C@]2(C)OC(=O)[C@H](C)C3CC[C@@](C)(OC(C)=O)[C@H]4C(C[C@@]1(C)O)OC2[C@@H]34` (some centres not stated)?
Activity [2]: inactive; Activity [1]: inactive; Activity [3]: inactive

With `CCCC(=O)O[C@]1(C)CCC2[C@@H]3C4OC(C[C@@](C)(O)[C@H](OC)CC[C@]4(C)OC(=O)[C@@H]2C)[C@@H]31` (some centres not stated) [BRIARELLIN P] as the compound, how does the IC50 (Plasmodium falciparum) read?
Its IC50 is 14 µg/mL (≈ 30.9 µM).

`C=C1CC2OC3[C@H]4C(CC[C@@](C)(OC(=O)CCC)[C@@H]24)[C@@H](C)C(=O)O[C@@]3(C)CC[C@H]1OC(C)=O` (some centres not stated) [BRIARELLIN L] was tested. Which IC50 (Plasmodium falciparum) did it give?
Its IC50 is 8 µg/mL (≈ 17.3 µM).

`CC(=O)O[C@]1(C)CCC2[C@@H]3C4OC(C[C@@](C)(O)[C@H](O)CC[C@]4(C)OC(=O)[C@@H]2C)[C@@H]31` (some centres not stated) [BRIARELLIN M] was tested. Which IC50 (Plasmodium falciparum) did it give?
The IC50 was 22 µg/mL (≈ 53.6 µM).

`C=C1CC2OC3[C@H]4C(CC[C@@](C)(OC(C)=O)[C@@H]24)[C@@H](C)C(=O)O[C@@]3(C)CC[C@H]1O` (some centres not stated) [BRIARELLIN K] was tested. Which IC50 (Plasmodium falciparum) did it give?
The IC50 was 15 µg/mL (≈ 38.2 µM).

And the Activity [2]?
The Activity was “inactive”.

And the Activity [1]?
Its Activity is “inactive”.

What about the Activity (NCI-H460) of the same compound?
The Activity was “inactive”.

What about the Activity [3] of the same compound?
Its Activity is “inactive”.

And the Activity (MCF)?
The Activity was “inactive”.

What about the Activity (SF-268) of the same compound?
Its Activity is “inactive”.

Which IC50 (Plasmodium falciparum) does the source give for `C=C1CC2OC3[C@H]4C(CC[C@@](C)(OC(C)=O)[C@@H]24)[C@@H](C)C(=O)O[C@@]3(C)CC[C@H]1OO` (some centres not stated) [BRIARELLIN K HYDROPEROXIDE] here?
The IC50 was 9 µg/mL (≈ 22 µM).

Source: ChEMBL document CHEMBL1150673, “Briarellins J-P and polyanthellin A: new eunicellin-based diterpenes from the gorgonian coral Briareum polyanthes and their antimalarial activity” (J Nat Prod, 2003)
